≈ marks a conversion by molar mass, not a printed value. Like-named read-outs stand apart in the source and are kept apart here.
Columns and labels:
E. coli = assay: Range of MIC for E. coli strains; conditions: Escherichia coli
E. coli #311 = assay: In vivo activity (oral, iv; ED50) against E. coli in mice; conditions: Escherichia coli
Excerpt: . […] Smith and E. Coli #311 in mammals.
Results of the tests (MIC, oral and IV) are list in Table 7.

Staph. aureus Smith = assay: In vivo activity (oral, iv; ED50) against Staph. aureus Smith in mice
Staph. = assay: Range of MIC for Staph. strains, including MRSA; conditions: Staphylococcus aureus
[1] = 20 h, read-out: Range of MIC, E. coli (Mouse Serum)
[2] = single intravenous dose (SIV), read-out: ED50 E. coli #311 SIV
[3] = single oral dose (SOD), read-out: ED50 E. coli #311 SOD
[4] = Staphylococcus aureus, in Mus musculus, po, read-out: ED50 Staph Smith SOD
[5] = iv, read-out: ED50 Staph Smith SIV
[6] = MRSA, read-out: Range of MIC, Staph (Mouse Serum)
[7] = MRSA, read-out: Range of MIC, Staph (Water)
[8] = read-out: Range of MIC, E. coli (Water)

Row | SMILES | MIC (E. coli; [1]) | MIC (Staph.; [6]) | MIC (Staph.; [7]) | MIC (Staph.; read-out: Minimum inhibitory concentration (MIC), Staph (Human Serum)) | MIC (Staph.; read-out: Minimum inhibitory concentration (MIC), Staph (Water)) | MIC (E. coli; [8]) | ED50 (E. coli #311; [2]) | ED50 (E. coli #311; [3]) | ED50 (Staph. aureus Smith; [4]) | ED50 (Staph. aureus Smith; [5])
1 | CN(C)c1cc(NC(=O)CN(C(=O)OCOC(=O)c2ccc(C(F)(F)F)cc2)C(C)(C)C)c(O)c2c1C[C@H]1C[C@H]3[C@H](N(C)C)C(O)=C(C(N)=O)C(=O)[C@@]3(O)C(O)=C1C2=O [Example 55, ({[(2-{[(5aR,6aS,7S,10aS)-9-(aminocarbonyl)-4,7-bis(dimethylamino)-1,8,10a,11-tetrahydroxy-10,12-dioxo-5,5a,6,6a,7,10,10a,12-octahydrotetracen-2-yl]amino}-2-oxoethyl)(tert-butyl)amino]carbonyl}oxy)methyl 4-(trifluoromethyl)benzoate] | 0.5 to 8 µg/mL (≈ 0.601 to 9.62 µM) | 1 to 2 µg/mL (≈ 1.2 to 2.4 µM) | 2 to 8 µg/mL (≈ 2.4 to 9.62 µM) | 1 to 4 µg/mL (≈ 1.2 to 4.81 µM) | 2 to 8 µg/mL (≈ 2.4 to 9.62 µM) |  | 4.69 mg/kg | 32 mg/kg | > 16 mg/kg | 1.81 mg/kg
2 | CN(C)c1cc(NC(=O)CN(C(=O)OCOC(=O)c2ccc(-c3ccccc3)cc2)C(C)(C)C)c(O)c2c1C[C@H]1C[C@H]3[C@H](N(C)C)C(O)=C(C(N)=O)C(=O)[C@@]3(O)C(O)=C1C2=O [Example 71, ({[(2-{[(5aR,6aS,7S,10aS)-9-(aminocarbonyl)-4,7-bis(dimethylamino)-1,8,10a,11-tetrahydroxy-10,12-dioxo-5,5a,6,6a,7,10,10a,12-octahydrotetracen-2-yl]amino}-2-oxoethyl)(tert-butyl)amino]carbonyl}oxy)methyl 1,1′-biphenyl-4-carboxylate] | 0.12 to 0.25 µg/mL (≈ 0.143 to 0.298 µM) | 0.5 to 1 µg/mL (≈ 0.595 to 1.19 µM) | 32 to 64 µg/mL (≈ 38.1 to 76.2 µM) |  |  | > 64 µg/mL | > 4 mg/kg | > 32 mg/kg | > 32 mg/kg | 1 mg/kg
3 | CN(C)c1cc(NC(=O)CN(C(=O)OCOC(=O)C(c2ccccc2)c2ccccc2)C(C)(C)C)c(O)c2c1C[C@H]1C[C@H]3[C@H](N(C)C)C(O)=C(C(N)=O)C(=O)[C@@]3(O)C(O)=C1C2=O [Example 74, ({[(2-{[(5aR,6aS,7S,10aS)-9-(aminocarbonyl)-4,7-bis(dimethylamino)-1,8,10a,11-tetrahydroxy-10,12-dioxo-5,5a,6,6a,7,10,10a,12-octahydrotetracen-2-yl]amino}-2-oxoethyl)(tert-butyl)amino]carbonyl}oxy)methyl diphenylacetate] | 0.25 to 1 µg/mL (≈ 0.293 to 1.17 µM) | 0.5 to 4 µg/mL (≈ 0.586 to 4.68 µM) |  |  |  | > 64 µg/mL | > 4 mg/kg | > 32 mg/kg | > 32 mg/kg | 1.08 mg/kg

The next lines start with results.

Row | MIC (E. coli; [1]) | MIC (Staph.; [6]) | MIC (Staph.; [7]) | MIC (Staph.; read-out: Minimum inhibitory concentration (MIC), Staph (Human Serum)) | MIC (Staph.; read-out: Minimum inhibitory concentration (MIC), Staph (Water)) | MIC (E. coli; [8]) | SMILES | ED50 (E. coli #311; [2]) | ED50 (E. coli #311; [3]) | ED50 (Staph. aureus Smith; [4]) | ED50 (Staph. aureus Smith; [5])
4 | 0.25 to 1 µg/mL (≈ 0.304 to 1.22 µM) | 0.25 to 1 µg/mL (≈ 0.304 to 1.22 µM) | 4 to 16 µg/mL (≈ 4.87 to 19.5 µM) |  |  |  | CC(C)Oc1ccc(C(=O)OCOC(=O)N(CC(=O)Nc2cc(N(C)C)c3c(c2O)C(=O)C2=C(O)[C@]4(O)C(=O)C(C(N)=O)=C(O)[C@@H](N(C)C)[C@@H]4C[C@@H]2C3)C(C)(C)C)cc1 [Example 96, ({[(2-{[(5aR,6aS,7S,10aS)-9-(aminocarbonyl)-4,7-bis(dimethylamino)-1,8,10a,11-tetrahydroxy-10,12-dioxo-5,5a,6,6a,7,10,10a,12-octahydrotetracen-2-yl]amino}-2-oxoethyl)(tert-butyl)amino]carbonyl}oxy)methyl 4-isopropoxybenzoate] | 2 to 4 mg/kg | > 32 mg/kg | 16 to 32 mg/kg | 1 to 2 mg/kg
5 | 1 to 4 µg/mL (≈ 1.2 to 4.8 µM) | 4 to 16 µg/mL (≈ 4.8 to 19.2 µM) | 4 to 32 µg/mL (≈ 4.8 to 38.4 µM) |  |  | 2 to 16 µg/mL (≈ 2.4 to 19.2 µM) | CCCCN(CC(=O)Nc1cc(N(C)C)c2c(c1O)C(=O)C1=C(O)[C@]3(O)C(=O)C(C(N)=O)=C(O)[C@@H](N(C)C)C3CC1C2)C(=O)OCc1oc(=O)oc1-c1ccc(OC)cc1 (stereo partly drawn) [Example 113, [5-(4-methoxyphenyl)-2-oxo-1,3-dioxol-4-yl]methyl 2-{[(7S,10aS)-9-(aminocarbonyl)-4,7-bis(dimethylamino)-1,8,10a,11-tetrahydroxy-10,12-dioxo-5,5a,6,6a,7,10,10a,12-octahydrotetracen-2-yl]amino}-2-oxoethyl(butyl)carbamate] |  |  | 7.01 mg/kg | 0.4 mg/kg
